Test results taken from patent publication US20240101548A1, “HYDROXAMATE COMPOUND, PREPARATION METHOD THEREFOR AND APPLICATION THEREOF” (SHENZHEN CHIPSCREEN BIOSCIENCES CO., LTD., priority 2020, published 2024).
Where two headings read alike, the source gives them in different places.

What was measured:
Format in all cases: cell-based, human
[1] = test system: IL-2-induced JAK1/JAK3 signal pathway; assay: IL-2-induced proliferation of KHYG-1 cells (JAK1/JAK3 signal); settings: read-out: Inhibition activity IC50 on IL-2-induced JAK1/JAK3 signal pathway
How it was run: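 Controls were wells lacking both compound and cytokine (0%) and compound-free IL-2 wells (100%). C50 was calculated from inhibition rates across doses.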

[2] = test system: IL-10-induced JAK1/TYK2 signal pathway; assay: IL-10-induced JAK1/TYK2 signal pathway STAT3-Luc reporter gene assay in U2OS cells; settings: U2OS cells, STAT3-Luc reporter, IL-10 10 ng/mL, read-out: Half inhibition dose (IC50) on IL-10-induced JAK1/TYK2 signal pathway
How it was run: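 Luciferase read-out (560 nm) corrected by GFP signal (Ex485/Em520) gives IL-10 pathway activity, and IC50 is derived from inhibition rates. Cells were U2OS transfected with IL-10R1 plus STAT3-Luc reporter, pretreated 6 h with 0.1–300 nM compound, then stimulated 24 h with IL-10 at 10 ng/mL.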

[3] = test system: EPO-induced JAK2 signal pathway; assay: EPO-induced proliferation of UT-7 cells (JAK2 signal); settings: UT-7 cell proliferation, EPO 10 ng/mL, 72 hours, read-out: Inhibition activity IC50 on EPO-induced JAK2 signal pathway
How it was run: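 […] was derived from inhibition rates across doses, scaled between wells lacking compound and cytokine (0) and EPO without compound (100), using alamarBlue fluorescence at Ex530/Em590. Compound (final 0-10000 nM) and 10 ng/mL EPO were given to UT-7 cells at 15000 per well for 72 h at 37° C.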

[4] = Homo sapiens, KHYG-1 cell proliferation, IL-2 10 ng/mL, 72 hours

SMILES | IC50 ([2]; Homo sapiens, U2OS) [µM] | IC50 [2] [µM] | IC50 ([1]; Homo sapiens, KHYG-1, 72 h) [µM] | IC50 ([2]; Homo sapiens) [µM] | IC50 ([3]; Homo sapiens, UT7) [µM] | IC50 [1, 4] [µM] | IC50 ([1]; KHYG-1 cell proliferation, IL-2 10 ng/mL, 72 hours) [µM] | IC50 [3] [µM]
CCONC(=O)c1cnc(Nc2cc(C)nc(C)n2)cc1Nc1ccccc1N(C)S(=O)(=O)C1CC1 [Example 173, 6-((2,6-dimethylpyrimidin-4-yl)amino)-N-ethoxy-4-((2-(N-methylcyclopropylsulfonamido)phenyl)amino)nicotinamide] |  |  | > 10 | 0.000424 | > 10 |  |  | 
CONC(=O)c1cnc(Nc2ccc(C#N)cn2)cc1Nc1ccccc1N(C)S(C)(=O)=O [Example 43, 6-((5-cyanopyridin-2-yl)amino)-N-methoxy-4-((2-(N-methylmethanesulfonamido)phenyl)amino)nicotinamide] | 0.00118 |  |  |  | > 10 | > 10 |  | 
CCONC(=O)c1cnc(Nc2cc(C)nc(C)n2)cc1Nc1ccc(N2CCOCC2)cc1N(C)S(C)(=O)=O [Example 134, 6-((2,6-dimethylpyrimidin-4-yl)amino)-N-ethoxy-4-((2-(N-methylmethanesulfonamido)-4-morpholinophenyl)amino)nicotinamide] | 0.00277 |  |  |  | > 10 | > 10 |  | 
CONC(=O)c1cnc(NC(=O)C2CC2)cc1Nc1cccc(-n2cccn2)c1OC [Example 41, 6-(cyclopropylcarboxamido)-N-methoxy-4-((2-methoxy-3-(1H-pyrazol-1-yl)phenyl)amino)nicotinamide] |  |  |  | 0.0017 | > 10 | > 10 |  | 
CCONC(=O)c1cnc(Nc2cccc(C)n2)cc1Nc1ccc(C2CC2)cc1N(C)S(C)(=O)=O [Example 224, 4-((4-cyclopropyl-2-(N-methylmethanesulfonamido)phenyl)amino)-N-ethoxy-6-((6-methylpyridin-2-yl)amino)nicotinamide] |  | 0.000177 |  |  |  |  | > 10 | > 10
C#Cc1ccc(Nc2cc(Nc3ccc(C4CC4)cn3)ncc2C(=O)NOCC)c(N(C)S(C)(=O)=O)c1 [Example 154, 6-((5-cyclopropylpyridin-2-yl)amino)-N-ethoxy-4-((4-ethynyl-2-(N-methylmethanesulfonamido)phenyl)amino)nicotinamide] | 0.00152 |  |  |  | > 10 | > 10 |  | 
CN(c1cc(C2CC2)ccc1Nc1cc(Nc2cccc(F)n2)ncc1C(=O)NOCC(F)(F)F)S(C)(=O)=O [Example 119, 4-((4-cyclopropyl-2-(N-methylmethanesulfonamido)phenyl)amino)-6-((6-fluoropyridin-2-yl)amino)-N-(2,2,2-trifluoroethoxy)nicotinamide] | 0.00153 |  |  |  | > 10 | > 10 |  | 
CCONC(=O)c1cnc(NC(=O)C2CC2)cc1Nc1ccccc1N(C)S(C)(=O)=O [Example 90, 6-(cyclopropylcarboxamido)-N-ethoxy-4-((2-(N-methylmethanesulfonamido)phenyl)amino)nicotinamide] | 0.0014 |  |  |  | > 10 | > 10 |  | 
CONC(=O)c1cnc(NC(=O)C2CC2)cc1Nc1cccc(-c2ncn(C)n2)c1OC [Example 69, 6-(cyclopropylcarboxamido)-N-methoxy-4-((2-methoxy-3-(1-methyl-1H-1,2,4-triazol-3-yl)phenyl)amino)-nicotinamide] |  |  |  | 0.00278 | > 10 | > 10 |  | 
CCONC(=O)c1cnc(Nc2cc(C)nc(C)n2)cc1Nc1ccc(C)cc1N(C)S(=O)(=O)CC [Example 203, 6-((2,6-dimethylpyrimidin-4-yl)amino)-N-ethoxy-4-((4-methyl-2-(N-methylethylsulfonamido)phenyl)amino)nicotinamide] | 0.000383 |  |  |  | > 10 | > 10 |  | 
CONC(=O)c1cnc(Nc2ccc(OC)cn2)cc1Nc1ccc(C2CC2)cc1N(C)S(C)(=O)=O [Example 16, 4-((4-cyclopropyl-2-(N-methylmethanesulfonamido)phenyl)amino)-N-methoxy-6-((5-methoxypyridin-2-yl)amino)nicotinamide] | 0.00127 |  |  |  | > 10 | > 10 |  | 
CONC(=O)c1cnc(NC(=O)C2CC2)cc1Nc1ccc(C2CC2)cc1N(C)S(C)(=O)=O [Example 12, 6-(cyclopropylcarboxamido)-4-((4-cyclopropyl-2-(N-methylmethanesulfonamido)phenyl)amino)-N-methoxy nicotinamide] |  |  |  | 0.000961 | > 10 | > 10 |  | 
CONC(=O)c1cnc(NC(=O)C2CC2)cc1Nc1ccc(F)cc1N(C)S(C)(=O)=O [Example 70, 6-(cyclopropylcarboxamido)-4-((4-fluoro-2-(N-methylmethanesulfonamido)phenyl)amino)-N-methoxy nicotinamide] |  |  |  | 0.00244 | > 10 | > 10 |  | 
CONC(=O)c1cnc(Nc2cccc(F)n2)cc1Nc1cccc(F)c1N(C)S(C)(=O)=O [Example 38, 4-((3-fluoro-2-(N-methylmethanesulfonamido)phenyl)amino)-6-((6-fluoropyridin-2-yl)amino)-N-methoxy nicotinamide] | 0.000506 |  |  |  | > 10 | > 10 |  | 
C#Cc1ccc(Nc2cc(Nc3ccc(C#N)cn3)ncc2C(=O)NOCC)c(N(C)S(C)(=O)=O)c1 [Example 142, 6-(5-cyanopyridin-2-ylamino)-N-ethoxy-4-((4-ethynyl-2-(N-methylmethanesulfonamido)phenyl)amino)nicotinamide] | 0.00041 |  |  |  | > 10 | > 10 |  | 
CCONC(=O)c1cnc(Nc2cc(C)nc(C)n2)cc1Nc1ccc(N2CCCCC2)cc1N(C)S(C)(=O)=O [Example 132, 6-((2,6-dimethylpyrimidin-4-yl)amino)-N-ethoxy-4-((2-(N-methylmethanesulfonamido)-4-(piperidin-1-yl)phenyl)amino)nicotinamide] | 0.000977 |  |  |  | > 10 | > 10 |  | 

Now from value to molecule, other results behind:

IC50 ([2]; Homo sapiens, U2OS) [µM] | IC50 [2] [µM] | SMILES | IC50 ([1]; Homo sapiens, KHYG-1, 72 h) [µM] | IC50 ([2]; Homo sapiens) [µM] | IC50 ([3]; Homo sapiens, UT7) [µM] | IC50 [1, 4] [µM] | IC50 ([1]; KHYG-1 cell proliferation, IL-2 10 ng/mL, 72 hours) [µM] | IC50 [3] [µM]
0.00109 |  | CONC(=O)c1cnc(Nc2ccc(F)cn2)cc1Nc1ccc(Cl)cc1N(C)S(C)(=O)=O [Example 46, 4-((4-chloro-2-(N-methylmethanesulfonamido)phenyl)amino)-6-((5-fluoropyridin-2-yl)amino)-N-methoxy nicotinamide] |  |  | > 10 | > 10 |  | 
 | 0.00252 | CCONC(=O)c1cnc(Nc2cccc(C)n2)cc1Nc1ccc(C2CC2)cc1N(C)S(C)(=O)=O [Example 146, 4-((4-cyclopropyl-2-(N-methylmethanesulfonamido)phenyl)amino)-N-ethoxy-6-((6-methylpyridin-2-yl)amino)nicotinamide] |  |  | > 10 | > 10 |  | 
0.000618 |  | CCONC(=O)c1cnc(Nc2cc(C)nc(C)n2)cc1Nc1ccc(C)cc1N(C)S(C)(=O)=O [Example 133, 6-((2,6-dimethylpyrimidin-4-yl)amino)-N-ethoxy-4-((4-methyl-2-(N-methylmethanesulfonamido)phenyl)amino)nicotinamide] |  |  | > 10 | > 10 |  | 
0.00151 |  | CCONC(=O)c1cnc(Nc2cnccn2)cc1Nc1cc(F)c(C2CC2)cc1N(C)S(C)(=O)=O [Example 167, 4-((4-cyclopropyl-5-fluoro-2-(N-methylmethanesulfonamido)phenyl)amino)-N-ethoxy-6-(pyrazin-2-ylamino)nicotinamide] |  |  | > 10 | > 10 |  | 
0.00115 |  | CONC(=O)c1cnc(Nc2ccc(F)cn2)cc1Nc1ccc(C)nc1N(C)S(C)(=O)=O [Example 60] |  |  | > 10 | > 10 |  | 
0.000289 |  | CCONC(=O)c1cnc(NC(=O)C2CC2)cc1Nc1cccc(-c2ncc(C)cn2)c1OC [Example 239, 6-(cyclopropylcarboxamido)-N-ethoxy-4-((2-methoxy-3-(5-methylpyrimidin-2-yl)phenyl)amino)nicotinamide] |  |  | > 10 | > 10 |  | 
0.00147 |  | CONC(=O)c1cnc(Nc2ccc(OC)cn2)cc1Nc1ccccc1N(C)S(C)(=O)=O [Example 101] |  |  | > 10 | > 10 |  | 
0.000395 |  | CCONC(=O)c1cnc(Nc2ccc(F)nc2)cc1Nc1ccc(C2CC2)cc1N(C)S(C)(=O)=O [Example 237, 4-((4-cyclopropyl-2-(N-methylmethanesulfonamido)phenyl)amino)-N-ethoxy-6-((6-fluoropyridin-3-yl)amino)nicotinamide] |  |  | > 10 | > 10 |  | 
0.00131 |  | CCONC(=O)c1cnc(Nc2ccnc(OC)n2)cc1Nc1ccc(C2CC2)cc1N(C)S(C)(=O)=O [Example 179, 4-((4-cyclopropyl-2-(N-methylmethanesulfonamido)phenyl)amino)-N-ethoxy-6-((2-methoxypyrimidin-4-yl)amino)nicotinamide] |  |  | > 10 | > 10 |  | 
